Measurements published in PubChem BioAssay (NCI).
Several values for one entry are separate records, joined by “and”; a condition that tells them apart may be missing. Identical values can stand only once.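 Each compound was tested at five concentrations against cells in 96-well plates for 48 hours. GI50: concentration for 50% inhibition of growth. TGI marks complete inhibition of growth.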

Columns and labels:
Test in all cases: NCI tumour cell line growth inhibition, 48 h
HOP-92 NSCLC = system: HOP-92 NSCLC
SF-295 CNS = system: SF-295 CNS
PC-3 prostate = system: PC-3 prostate
NCI-H226 lung = system: NCI-H226 lung
NCI-H522 lung = system: NCI-H522 lung
UACC-62 melanoma = system: UACC-62 melanoma
MDA-MB-231 breast = system: MDA-MB-231 breast
HT29 colon = system: HT29 colon
OVCAR-4 ovarian = system: OVCAR-4 ovarian
SR leukemia = system: SR leukemia

| Structure (SMILES) | GI50 (HOP-92 NSCLC) [µM] | TGI (HOP-92 NSCLC) [µM] | GI50 (SF-295 CNS) [µM] | TGI (SF-295 CNS) [µM] | GI50 (PC-3 prostate) | TGI (PC-3 prostate) | GI50 (NCI-H226 lung) [µM] | TGI (NCI-H226 lung) | GI50 (NCI-H522 lung) [µM] | TGI (NCI-H522 lung) [µM] | GI50 (UACC-62 melanoma) [µM] | TGI (UACC-62 melanoma) | GI50 (MDA-MB-231 breast) [µM] | TGI (MDA-MB-231 breast) | GI50 (HT29 colon) [µM] | TGI (HT29 colon) [µM] | GI50 (OVCAR-4 ovarian) [µM] | TGI (OVCAR-4 ovarian) [µM] | GI50 (SR leukemia) | TGI (SR leukemia) |
| --- | --- | --- | --- | --- | --- | --- | --- | --- | --- | --- | --- | --- | --- | --- | --- | --- | --- | --- | --- | --- |
| O=c1oc2ccccc2c(Cl)c1Cl | 5.71 | 18.6 | 11.7 | 28.4 | 7.51 µM | 24.5 µM | 10 | 24.5 µM | 3.46 | 15.5 | 4.82 | 18.1 µM | 2.48 | 6.2 µM | 2.25 | 4.85 | 6.76 | 19.6 | 2.29 µM | 65.8 µM |
| O=C(O)C1CCCN1Cc1c[nH]c2ccccc12 (stereo not given) |  | > 100 |  | > 100 |  | > 100 µM |  | > 100 µM |  | > 100 |  | > 100 µM |  | > 100 µM |  | > 100 |  | > 100 |  | > 100 µM |
| CCOC(=O)c1[nH]c2cccc3c2c1CC(Br)C3=O (stereo not given) |  | 33.6 |  | 32.6 |  | 33 µM |  | 37.2 µM |  |  |  |  |  | 33.6 µM |  | 47.7 |  |  |  | 4.99 µM |
| Cc1ccc2c(/C=C/C(=O)c3cc(CN4CCOCC4)c(O)c4nc(C)ccc34)cc(CN3CCOCC3)c(O)c2n1 | 1.11 | 9.78 | 0.765 | 10.3 | 0.577 µM | 19.1 µM | 1.24 | 4.13 µM | 0.332 | 2 | 0.432 | 7.48 µM | 1.44 | 5.2 µM | 1.64 | 3.39 | 0.637 | 2.43 | 0.318 µM | 11.9 µM |
| Cc1c2ncccc2c(C)c2c1[nH]c1ccc(O)cc12 |  | 17.3 | 4.53 | 10.3 | 7.27 µM and 5.01 µM | 13.7 µM and 12.2 µM | 7.8 | 22.2 µM and 17.6 µM |  | 19.6 | 7.92 | 27.1 µM and 21.1 µM | 7.26 | 19.2 µM and 54.4 µM |  | 32.3 |  | 16 | 2.91 µM and 2.48 µM | 7.31 µM and 18.9 µM |
| Nc1nc(SCC(=O)O)[nH]c(=O)c1N |  | > 100 |  | > 100 |  | > 100 µM |  | > 100 µM |  | > 100 |  | > 100 µM |  | > 100 µM |  | > 100 |  | > 100 |  | 77.7 µM |
| COC(=O)/C=C1\SC(=Nc2ccc(C(F)(F)F)cc2)N(CCc2c[nH]c3ccccc23)C1=O | 1.58 | 3.24 | 1.57 | 2.95 | 1.62 µM | 3.32 µM | 1.87 | 3.62 µM | 1.71 | 3.91 | 1.62 | 3.47 µM | 1.5 | 2.87 µM | 1.86 | 4.56 | 1.61 | 3.05 | 0.613 µM | 9.31 µM |
| O=C(Nc1ncc([N+](=O)[O-])s1)c1cccc([N+](=O)[O-])c1 | 1.99 | 6.86 | 2.71 | 35.1 | 2.99 µM | > 100 µM | 4.1 | > 60.1 µM | 3.18 | 65.9 | 2.38 | > 32.7 µM | 5.12 | 54.5 µM | 4.43 | 97.2 | 3.97 | > 100 | 2.36 µM | 9.01 µM |
| CC1=C(C(=O)Nc2ccc(F)c(Cl)c2)C(c2cccc(O)c2)NC(=S)N1 (stereo not given) | > 50 | > 50 | 18 | > 50 | 32.1 µM | > 50 µM |  |  | 12.4 | > 50 | 11.9 | 36.6 µM | 10.9 | 30.2 µM |  |  |  |  | 16.4 µM | > 50 µM |
| Clc1ccc(Nc2ccnc(NCCNc3ccnc4cc(Cl)ccc34)n2)cc1 | 0.126 | 2 | 1.16 | 2.42 | 1.19 µM | 3.15 µM |  |  | 1.7 | 3.27 | 1.69 | 3.17 µM | 1.59 | 3.31 µM | 0.615 | 2.07 | 1.03 | 2.31 | 1.39 µM | 3.43 µM |
| O=C1NC(=O)C2=C1CCC2O (stereo not given) |  | > 100 |  | > 100 |  | > 100 µM |  | > 100 µM |  |  |  | > 100 µM |  | > 100 µM |  | > 100 |  | > 100 |  | > 100 µM |
| O=C(Oc1cccc(Nc2ncnc3ccccc23)c1)c1ccccc1Cl |  |  | 20 | 47.5 | 17.8 µM | 45.9 µM | 16.3 | 43.8 µM | 7.23 | 26.8 | 22.5 | 80.6 µM | 14.3 | 36 µM | 27.4 | > 100 | 48.9 | > 100 | 65.7 µM | > 100 µM |
| Cn1cc(-c2nc(-c3c[nH]c4ncccc34)cs2)c2cc(Cl)ccc21 | 2.93 | 18.4 | 2.35 | 8.75 | 3.62 µM | > 100 µM | 11.9 | > 100 µM | 5.56 | > 100 | 8.8 | > 100 µM | 2.65 | 54.1 µM |  |  | 0.37 | > 100 | 6.92 µM | > 100 µM |
